Laboratory results taken from paper PMC9283466, “In silico identification of two peptides with antibacterial activity against multidrug-resistant Staphylococcus aureus” (NPJ Biofilms and Microbiomes, 2022).
Values after ≈ are worked out from the molar mass of the structure shown. Bridge positions count the residues as written; N and C are the ends. Peptide text beside a SMILES is read from it.

Key:
Assay in all cases: microbe, parasite or virus in culture
Sal. typhimurium SL1344 = type: cell-based, Salmonella enterica serovar Typhimurium
Description: (§1) To determine the antimicrobial activity of the new antimicrobial peptides, HG2 and HG4, their minimum inhibitory concentrations (MICs) were determined by broth microdilution method[51] in cation adjusted Mueller Hinton broth (MHB) following the International Organisation for Standardisation (ISO) 20776-1 standard for MIC testing using a final bacterial inoculum of 5 × 10^5 CFU/ml[52]. […] The peptides dissolved in sterile distilled water were added to bacteria culture and incubated overnight at appropriate conditions. The MICs of the peptides and comparator antibiotics were recorded after 18–24 h. The minimum bactericidal concentrations (MBCs) were also determined and were taken as the lowest concentration of the antimicrobial that prevented the growth of bacterial cells after the subculture of cells (from MIC treatment) onto antibiotic-free media.

Sal. typhimurium = type: cell-based, Salmonella enterica serovar Typhimurium; conditions: Sal. typhimurium; Supplementary Table 5
Description: as §1

[1] = test system: L. monocytogenes NCTC 11994; type: cell-based, Listeria monocytogenes; conditions: NCTC 11994
Description: as §1

List. monocytogenes = type: cell-based, Listeria monocytogenes
Description: as §1

EMRA-15 = type: cell-based, Staphylococcus aureus
In short: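 Peptides were dissolved in sterile distilled water and added to bacterial cultures at a final 5 × 10^5 CFU/ml in cation-adjusted Mueller Hinton broth. Plates were incubated overnight and MICs were read at 18–24 h following ISO 20776-1. Subculture from MIC treatments onto antibiotic-free media gave MBCs.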

Row | Compound | MIC (Sal. typhimurium SL1344) | Minimum inhibitory Concentrations MICs (Sal. typhimurium) | MIC [1] | Minimum inhibitory Concentrations MICs (List. monocytogenes) | Minimum inhibitory Concentrations MICs (EMRA-15)
1 | CC[C@H](C)[C@H](NC(=O)[C@H](CC(C)C)NC(=O)[C@H](CC(C)C)NC(=O)[C@H](CC(C)C)NC(=O)[C@H](CCCCN)NC(=O)[C@H](CCCCN)NC(=O)[C@@H](N)CCSC)C(=O)N[C@@H](CC(C)C)C(=O)N[C@@H](Cc1ccccc1)C(=O)N[C@H]1CSSC[C@@H](C(=O)N[C@@H](CCCCN)C(=O)N[C@@H](CCCCN)C(=O)N[C@@H](C)C(=O)N2CCC[C@H]2C(N)=O)NC(=O)CNC(=O)[C@H](C)NC(=O)[C@H](CC(C)C)NC(=O)[C@H](C)NC(=O)[C@H](CC(C)C)NC(=O)[C@H](C)NC(=O)[C@H](CC(C)C)NC1=O [HG2] (H-MKKLLLILFCLALALAGCKKAP-NH2; disulfide 10-18; N-terminus assumed) | 256 µg/mL (≈ 109 µM) |  |  |  | 
2 | CC[C@H](C)[C@H](NC(=O)[C@H](CC(C)C)NC(=O)[C@H](CC(C)C)NC(=O)[C@H](C)NC(=O)CNC(=O)CNC(=O)[C@@H](NC(=O)[C@@H](NC(=O)[C@H](CC(C)C)NC(=O)[C@H](C)NC(=O)[C@H](CC(C)C)NC(=O)CNC(=O)[C@H](CC(C)C)NC(=O)[C@@H](N)C(C)C)[C@@H](C)CC)C(C)C)C(=O)N[C@@H](CCCCN)C(=O)N[C@@H](CCCCN)C(=O)N[C@@H](CCCCN)C(=O)N[C@@H](CCC(N)=O)C(=O)N[C@@H](C)C(=O)N[C@@H](CCCCN)C(=O)N[C@@H](CO)C(N)=O [HG4] (H-VLGLALIVGGALLIKKKQAKS-NH2; N-terminus and C-terminus assumed) |  | 512 µg/mL | 512 µg/mL (≈ 242 µM) | 512 µg/mL | 32 µg/mL
